Laboratory results: patent US6472541B2, “Protecting groups with increased photosensitivities” (The Regents of the University of California, priority 1998, dated 2002)
Marks after values point to notes of the source that are not given here.

Assays:
[1] = Electronic absorption and emission properties; format: physicochemical
Protocol: Generally, chemicals and solvents were used directly as received unless otherwise noted. Acetonitrile, chloroform and dichloromethane were dried over 4A molecular sieves. Proton magnetic resonance spectra (^1H NMR) were recorded on a Gemini 200 MHz spectrometer (Varian; Palo Alto, Calif.) and reported in ppm (δ) downfield from tetramethylsilane with residual solvent peaks as the internal standards. Ultraviolet spectra were recorded on a Cary 3E UV-Visible spectrophotometer (Varian, Palo Alto, Calif., USA). Fluorescence spectra were recorded on a Fluorolog spectrofluorometer (SPEX; Edison, N.J., USA). Mass spectra were recorded on a electrospray mass spectrometer (5989B, Hewlett-Packard; Palo Alto, Calif., USA). Thin layer chromatography (TLC) and column chromatography were performed on precoated silica gel 60F-254 plates and 230-400 mesh silica gel 60 respectively (EM Separations; Gibbstown, N.J., USA). All manipulations of compounds sensitive to near ultraviolet light were performed under an orange safety lamp.
(§1) The electronic absorption and emission properties of the compounds were measured and the stability of the compounds toward hydrolysis in the dark was tested. Stability in the dark can be used to help identify photolabile protecting groups that can be used in a variety of different conditions. Specifically, the quantum efficiencies for one-photon excitation and rates of hydrolysis in the dark were determined.

[2] = Mechanism of photolysis (triplet state lifetime); format: physicochemical
From the text: The halogenated coumarin derivatives have good dark stability, and high one-photon and two-photon uncaging efficiencies. Without being bound to any particular theory, halogenation of the coumarin may have increased the two-photon cross-sections by lowering the pKa of the chromophore below physiological pH and promoting formation of the more strongly absorbing anion. Also, the heavy atoms may promote intersystem crossing to the triplet, which is believed to be the photochemically reactive state. […] The mechanism of photolysis of compound 7 and compound 23 indicate that the solvolysis occurs via the triplet state with a lifetime of about 1 μs. […] Although compound 6 had the highest cross-section, its photolysis was complicated by multiple secondary photoproducts. The monobromo compound (compound 5) was much more tractable and easily formed caged compounds.

[3] = One-photon photolysis quantum efficiency (UV irradiation, HPLC analysis); format: physicochemical; details: 365 nm
Protocol: as §1
[…] The duration of each irradiation period was controlled by an electronic shutter. Between each irradiation, a small aliquot (10 μL) of the solution was removed for analysis by reversed phase HPLC with a Betabasic-18 column eluted with a isocratic mixture of 60% acetonitrile and water containing 0.1% trifluoracetic acid at a flow rate of 0.8 mL/min, using absorbance detection at 325 nm. […] […] Quantum efficiencies were calculated as (Iσt90%)^−1, where I is the irradiation intensity in einsteins (cm^−2s^−1), σ is the decadic extinction coefficient in cm^2mol^−1 (10^3 times ε, the usual extinction coefficient in M^−1cm^−1), and t90% is the irradiation time in seconds for 90% conversion to product. […] Dark hydrolysis rates were measured similarly except without illumination.

brain slices = assay: Two-photon infrared uncaging on brain slices, whole-cell recordings
Protocol: A map was created where the brightness at each picture element was proportional to the maximum current recorded with the laser focused at that position.
Two-photon infrared uncaging on brain slices was also carried out. […] The stream of pulses from the Ti:sapphire laser was raster-scanned across cell bodies and dendrites.

[4] = In vitro measurements of two-photon uncaging and fluorescence cross-sections; format: physicochemical; details: measured at 780 nm on an independent apparatus
[5] = as above; format: physicochemical; details: pH 7.2
Protocol: Measurements of cross-sections for two-photon uncaging were carried out in microcuvettes with cylindrical cavities having a 1 cm path length and 20 μL total volume (Type 26F, Starna). Femtosecond infrared pulses from a mode-locked titanium-sapphire laser (Spectra-Physics TSUNAMI, pumped by a Spectra-Physics MILLENNIUM) were aimed along the axis of the sample chamber and focused in its center with a 25 mm focal length lens (06LXP003/076, Melles Griot, Irvine, Calif.) optimized for infrared lasers. The pulse parameters were estimated by replacing the caged compound by a solution of fluorescein, a reference compound of known fluorescence quantum yield Qf2 (0.9) and two-photon absorbance cross-section δaF (30 and 38 GM at 740 and 800 nm respectively). The time-averaged fluorescence <F(t)>collected by the detector is given by equation (1)
<F(t)>=0.5φQf2δaFCF<I0^2(t)>∫S^2(r)dV (1)
where φ is the collection efficiency of the detector, CF is the concentration of fluorescein, <I0^2(t)> is the mean squared light intensity, S(r) is a unitless spatial distribution function, and the integral is over the volume of the microcuvette. The fluorescence emitted at right angles to the laser beam was measured through a 535 nm bandpass filter in front of a silicon photodiode radiometer (IL1700, International Light). The collection efficiency φ was estimated as Ay/(4πR^2n^2), where A is the area of the detector (0.38 cm^2), y is the fraction of the integrated emission spectrum transmitted by the interference filter (0.377), measured separately in a spectrofluorometer, R is the distance from the center of the cuvette to the detector (3.83 cm), and n is the refractive index of water (1.333). For photolysis of a caged compound or substrate, the number NP of molecules of product formed per unit time is (eq. 2):
NP=0.5Qu2δaSCS<I0^2(t)>∫S^2(r)dV (2)
where Qu2, δaS, and CS are the quantum efficiency for two-photon uncaging, absorbance cross-section, and concentration of the substrate, respectively. NP was measured by HPLC sampling of the microcuvette as for the one-photon photolysis. The uncaging action cross-section δu2 (≡Qu2δaS) can therefore be estimated by (eq. 3): [formula]
Similarly, when the substrate is also fluorescent, its two-photon fluorescence action cross-section δf2S (≡Qf2SδaS) can be estimated as (eq. 4): [formula]
Here the subscripts S and F distinguish values for the substrate and for the fluorescein reference. If one assumes that one- and two-photon quantum efficiencies are the same, then δu2/Qu1 and δf2S/Qf1S should both equal δaS. In fact, the former values are typically about twice the latter. All of them are directly proportional to the assumed value of Qf2 for fluorescein.

rat cortical neurons = assay: One-photon UV uncaging of caged glutamate on brain slices, neuronal responses; format: cell-based; details: one-photon UV uncaging at 365 nm, 10 mW, average
Protocol: The photolabile protecting groups can be uncaged by one-photon or two-photon photolysis. One-photon ultraviolet uncaging experiments were carried out on brain slices. In particular, compound 7 was used to deliver glutamate to rat cortical neurons. One-photon UV uncaging of caged glutamate compound at 365 nm released the glutamate. Neuronal responses were measured after directly stimulating cells as described in Sawatari and Callaway, Nature 380:442-446 (1996). The cells were exposed to compound 7 (Bhc-Glu) or γ-(α-carboxy-2-nitrobenzyl)glutamate, trifluoroacetate salt (compound 1, CNB-glutamate). The one-photon uncaging was carried out as described in FIG. 1 depicts the lower power needed to uncage compound 7 (Bhc-Glu) in the neuron sample in comparison to compound 1 (alpha-carboxy nitrobenzyl-caged glutamate, CNB-Glu). At 10 mW the compound 7-stimulated neurons respond, on average, at amplitudes 80% of their maximum, while compound 1-stimulated neurons are responding at less than 20% of their maximum amplitudes.

For `O=C(O)CC[C@H](NC(=O)OCc1cc(=O)oc2cc(O)c(Br)cc12)C(=O)O` [Compound 7, N-(6-Bromo-7-hydroxycoumarin-4-yl)methoxycarbonyl glutamate], the “Qf1 Quantum efficiency for fluorescence with one-photon excitation” value [1] was 0.38, the λem [1] was 474 nm and the “ε Molar Absorptivity at 365 nm” value ([1]; 365 nm) was 17,300 M^−1cm^−1. For the same molecule, the “ε Molar Absorptivity at 400 nm” value ([1]; 400 nm) was 5,400 M^−1cm^−1, the “λmax Wavelength of peak absorbance” value ([1]; pH 7.2) was 368 nm and the “ε Molar absorptivity at absorbance peak” value ([1]; pH 7.2, at absorbance peak) was 17,470 M^−1cm^−1. The “Lifetime of triplet state through which solvolysis occurs” value [2] was “about 1 μs”, the “Qu1 Quantum efficiency for uncaging with one-photon excitation at 365 nm” value [3] was 0.019 and the “εQu1 One-photon action cross section (product of molar absorptivity and photolysis quantum yield) at 365 nm” value [3] was 329 M⁻¹ cm⁻¹. For the same molecule, the “Response to laser scans after application of caged compound” value (brain slices; Ti:sapphire laser raster-scanned across cell bodies and dendrites) was “scans evoked inward currents”, the “Entry into the cell” value (brain slices; photolysis map of neuron) was “did not enter the cell” and the “Change in holding current on application of caged compound (intrinsic agonist activity)” value (brain slices; whole-cell recordings, 15 cells, before photolysis) was “did not cause detectable changes in holding current”. For the same molecule, the “δf fluorescence action cross-section for two-photon excitation” value [4] was 2.2* 10^−50 cm^4s/photon, the “δu (740 nm) uncaging action cross-section for two-photon excitation” value ([5]; 740 nm) was 0.98 ± 10^−50 cm^4s/photon and the “δu (800 nm) uncaging action cross-section for two-photon excitation” value ([5]; 800 nm) was 0.37 ± 10^−50 cm^4s/photon. The “Neuron response amplitude, percent of maximum amplitude” value (rat cortical neurons) was 80%.
